Patent US12139487B2, “Compounds and uses thereof” (Foghorn Therapeutics Inc., priority 2022, dated 2024)

Test system: BRM-dependent transcription (BRG1 mutant lung cancer cell line A549)
Assay: BRM-dependent transcription, MMTV luciferase reporter in BRG1 mutant A549 cells
Type: cell-based
Conditions: Table 11; for IC50: A549-MMTV luciferase reporter, dexamethasone induced, 6 hours; for Ratio (MDA-MMTV IC50 (μM) divided by A549-MMTV IC50 (μM)): MMTV luciferase reporter cell lines, selectivity BRG1/BRM
Method in brief: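 A549 (BRG1-mutant) cells engineered with a BRM-dependent MMTV luciferase reporter; transcription induced with dexamethasone in presence of compound at various concentrations. Luminescence read 6 h after stimulation.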

Row | Compound | IC50 (Homo sapiens, A549, 6 h) [µM] | Ratio (MDA-MMTV IC50 (μM) divided by A549-MMTV IC50 (μM)) | IC50 [µM]
1 | CCOc1nccc2c1OCCN2c1ccc2cnc(CNC(=O)c3cc(Cl)c4c(c3)S(=O)(=O)[C@@H](F)COC4)cc2n1 [Compound 477] | 0.0074 | 52.71 | –
2 | [2H]C([2H])([2H])C([2H])([2H])Oc1nc([C@H](F)CF)ccc1-c1ccc2cnc(CNC(=O)c3cc(C(F)F)c4c(c3)S(=O)(=O)[C@@H](F)COC4)cc2n1 [Compound 478] | 0.0104 | 33.55 | –
3 | [2H]C([2H])([2H])C([2H])([2H])Oc1nc([C@@H](F)CF)ccc1-c1ccc2cnc(CNC(=O)c3cc(C(F)F)c4c(c3)S(=O)(=O)[C@@H](F)COC4)cc2n1 [Compound 479] | 0.0062 | 35.46 | –
4 | [2H]C([2H])([2H])Oc1ccc(-c2ccc3cnc(CNC(=O)c4cc(Br)c5c(c4)S(=O)(=O)[C@@H](F)COC5)cc3n2)nc1C1CC1(F)F (stereo partly drawn) [Compound 480] | 0.0094 | 38.09 | –
5 | CCOc1nc([C@H](F)CF)ccc1-c1ccc2cnc(CNC(=O)c3cc(Cl)c4c(c3)S(=O)(=O)[C@@H](F)COC4)cc2n1 [Compound 481] | – | 50.79 | 0.0102
6 | O=C(NCc1cc2nc(-c3ccc([C@@H](F)C(F)F)c(C4CC4)n3)ccc2cn1)c1cc(Cl)c2c(c1)S(=O)(=O)[C@@H](F)COC2 [Compound 482] | 0.012 | 25.21 | –
7 | O=C(NCc1cc2nc(-c3ccc([C@@H](F)C(F)F)c(C4CC4)n3)ccc2cn1)c1cc(Br)c2c(c1)S(=O)(=O)[C@@H](F)COC2 [Compound 483] | 0.0111 | 28.21 | –
8 | [2H]C([2H])([2H])OCCOc1cnc2c(c1)OCCN2c1ccc2cnc(CNC(=O)c3cc(C(F)F)c4c(c3)S(=O)(=O)[C@@H](F)COC4)cc2n1 [Compound 484] | 0.0054 | 28.00 | –
9 | [2H]C([2H])([2H])C([2H])([2H])Oc1nc([C@H](F)CF)ccc1-c1ccc2cnc(CNC(=O)c3cc(Br)c4c(c3)S(=O)(=O)[C@@H](F)COC4)cc2n1 [Compound 485] | 0.012 | 49.42 | –
10 | [2H]C([2H])([2H])C([2H])([2H])Oc1nc(C(F)F)ccc1-c1ccc2cnc(CNC(=O)c3cc(Br)c4c(c3)S(=O)(=O)[C@@H](F)COC4)cc2n1 [Compound 486] | 0.0133 | 33.87 | –
11 | COc1ccc(-c2ccc3cnc(CNC(=O)c4cc(Br)c5c(c4)S(=O)(=O)[C@@H](F)COC5)cc3n2)nc1C1CC1 [Compound 487] | 0.0134 | 53.94 | –
12 | O=C(NCc1cc2nc(-c3ccc(C(F)F)nc3OCC3CC3)ccc2cn1)c1cc(F)c2c(c1)S(=O)(=O)[C@@H](F)COC2 [Compound 488] | 0.0079 | 26.53 | –
13 | [2H]C([2H])([2H])C([2H])([2H])Oc1nc([C@@H](F)CF)ccc1-c1ccc2cnc(CNC(=O)c3cc(Br)c4c(c3)S(=O)(=O)[C@@H](F)COC4)cc2n1 [Compound 489] | 0.0118 | 35.95 | –
14 | O=C(NCc1cc2nc(-c3ccc([C@H](F)C(F)F)c(C4CC4)n3)ccc2cn1)c1cc(C(F)F)c2c(c1)S(=O)(=O)[C@@H](F)COC2 [Compound 490] | 0.0079 | 26.59 | –
15 | O=C(NCc1cc2nc(-c3ccc([C@H](F)C(F)F)c(C4CC4)n3)ccc2cn1)c1cc(Cl)c2c(c1)S(=O)(=O)[C@@H](F)COC2 [Compound 491] | 0.0182 | 23.59 | –
16 | O=C(NCc1cc2nc(-c3ccc([C@H](F)C(F)F)c(C4CC4)n3)ccc2cn1)c1cc(Br)c2c(c1)S(=O)(=O)[C@@H](F)COC2 [Compound 492] | 0.0166 | 24.09 | –
17 | [2H]C([2H])([2H])Oc1ccc(-c2ccc3cnc(CNC(=O)c4cc(Br)c5c(c4)S(=O)(=O)[C@@H](F)COC5)cc3n2)nc1[C@H]1CC1(F)F [Compound 493] | 0.0194 | 49.65 | –
18 | COCCCOc1cnc2c(c1)OCCN2c1ccc2cnc(CNC(=O)c3cc(C(F)F)c4c(c3)S(=O)(=O)[C@@H](F)COC4)cc2n1 [Compound 494] | 0.0057 | 28.82 | –
19 | [2H]C([2H])([2H])C([2H])([2H])Oc1nc(C(F)F)ccc1-c1ccc2cnc(CNC(=O)c3cc(Cl)c4c(c3)S(=O)(=O)[C@@H](F)COC4)cc2n1 [Compound 495] | 0.0151 | 32.03 | –
20 | C[C@@H]1CCN1c1cnc2c(-c3ccc4cnc(CNC(=O)c5cc(F)c6c(c5)S(=O)(=O)[C@@H](F)COC6)cc4n3)cccc2c1 [Compound 496] | – | 21.18 | 0.0016
21 | C[C@@H]1CCN1c1cnc2c(-c3ccc4cnc(CNC(=O)c5cc(Cl)c6c(c5)S(=O)(=O)[C@@H](F)COC6)cc4n3)cccc2c1 [Compound 497] | – | 29.41 | 0.0124
22 | C[C@@H]1CCN1c1cnc2c(-c3ccc4cnc(CNC(=O)c5cc(Cl)c6c(c5)S(=O)(=O)[C@@H](F)COC6)cc4n3)cccc2c1 [Compound 498] | – | 38.20 | 0.0059
23 | [2H]C([2H])([2H])C([2H])([2H])Oc1nc(C(C)(F)F)ccc1-c1ccc2cnc(CNC(=O)c3cc(Cl)c4c(c3)S(=O)(=O)[C@@H](F)COC4)cc2n1 [Compound 499] | 0.015 | 24.97 | –
24 | [2H]C([2H])([2H])OC([2H])([2H])C([2H])([2H])Oc1cnc2c(c1)OCCN2c1ccc2cnc(CNC(=O)c3cc(C(F)F)c4c(c3)S(=O)(=O)[C@@H](F)COC4)cc2n1 [Compound 500] | 0.0077 | 21.12 | –
25 | CCOc1nn(-c2ccc3cnc(CNC(=O)c4cc(C(F)F)c5c(c4)S(=O)(=O)[C@@H](F)COC5)cc3n2)cc1F [Compound 501] | 0.013 | 30.55 | –
26 | [2H]C([2H])([2H])[C@@]([2H])(F)c1ccc(-c2ccc3cnc(CNC(=O)c4cc(Br)c5c(c4)S(=O)(=O)[C@@H](F)COC5)cc3n2)c(OC)n1 [Compound 502] | 0.0096 | 38.00 | –
27 | O=C(NCc1cc2nc(-c3cccc4c3OC(F)(F)O4)ccc2cn1)c1cc(C(F)F)c2c(c1)S(=O)(=O)[C@@H](F)COC2 [Compound 503] | 0.0173 | 33.25 | –
28 | CCOc1nc(C(F)F)ncc1-c1ccc2cnc(CNC(=O)c3cc(Cl)c4c(c3)S(=O)(=O)[C@@H](F)COC4)cc2n1 [Compound 505] | 0.0106 | 21.63 | –
29 | [2H]C([2H])([2H])Oc1ccc(-c2ccc3cnc(CNC(=O)c4cc(Cl)c5c(c4)S(=O)(=O)[C@@H](F)COC5)cc3n2)nc1C1CC1(F)F (stereo partly drawn) [Compound 506] | 0.0102 | 42.09 | –
30 | [2H]C([2H])([2H])Oc1ccc(-c2ccc3cnc(CNC(=O)c4cc(Cl)c5c(c4)S(=O)(=O)[C@@H](F)COC5)cc3n2)nc1C1CC1(F)F (stereo partly drawn) [Compound 507] | – | 30.86 | 0.0135
